Series [1] addresses Calcium/calmodulin-dependent protein kinase type 1 (Homo sapiens) (UniProt Q14012). Put plainly: Inhibition of human CAMK1 at 100 nM.
Series [2] deals with T1, Inhibitor of nuclear factor kappa-B kinase subunit beta (Homo sapiens) (UniProt O14920).
T1 sequence (whole entry): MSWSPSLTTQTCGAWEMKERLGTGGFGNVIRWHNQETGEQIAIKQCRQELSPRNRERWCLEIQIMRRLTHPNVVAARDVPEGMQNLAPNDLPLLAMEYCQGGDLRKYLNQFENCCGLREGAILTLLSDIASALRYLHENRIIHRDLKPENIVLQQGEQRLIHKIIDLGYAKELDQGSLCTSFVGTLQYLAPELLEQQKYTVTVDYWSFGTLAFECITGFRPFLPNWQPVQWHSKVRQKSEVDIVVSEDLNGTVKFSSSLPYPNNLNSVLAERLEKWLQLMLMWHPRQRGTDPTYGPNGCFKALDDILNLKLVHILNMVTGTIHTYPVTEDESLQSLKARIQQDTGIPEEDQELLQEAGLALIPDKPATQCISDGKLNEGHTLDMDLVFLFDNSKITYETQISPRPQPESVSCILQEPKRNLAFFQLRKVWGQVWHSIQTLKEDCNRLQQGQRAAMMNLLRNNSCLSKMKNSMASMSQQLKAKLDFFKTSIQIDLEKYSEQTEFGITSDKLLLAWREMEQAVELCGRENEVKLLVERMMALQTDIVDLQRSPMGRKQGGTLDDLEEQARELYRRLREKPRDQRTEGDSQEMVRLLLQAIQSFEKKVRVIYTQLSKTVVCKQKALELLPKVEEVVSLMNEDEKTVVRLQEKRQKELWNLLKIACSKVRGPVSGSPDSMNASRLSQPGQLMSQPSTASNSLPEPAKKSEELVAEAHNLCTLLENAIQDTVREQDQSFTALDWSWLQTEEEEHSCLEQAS
The following applies: at 100 nM.
Description: Inhibition of human IKKb at 100 nM

Series [3] concerns the target Dual specificity tyrosine-phosphorylation-regulated kinase 1A (Homo sapiens) (UniProt Q13627). Put plainly: Inhibition of human DYRK1A at 100 nM.
In series [4] the target is Mitogen-activated protein kinase kinase kinase kinase 2 (Homo sapiens) (UniProt Q12851). Put plainly: Inhibition of human GCK at 100 nM.
The next series deals with Plasmodium falciparum. Description: Antimalarial activity against Plasmodium falciparum after 48 hrs by microbeta scintillation counting-based [3H]-hypoxanthine incorporation assay. It is filed as functional, organism-based.
The target of series [5] is Serine/threonine-protein kinase Chk1 (Homo sapiens) (UniProt O14757). Description: Inhibition of human CHK1 at 100 nM.
The target of series [6] is Phosphorylase kinase (Homo sapiens) (UniProt P15735+P46020+P46019+Q93100+Q16816). Description: Inhibition of human PHK at 100 nM. It is filed as protein-complex assay.
Series [7] can be described thus: Kinetic solubility of the compound.
Series [8] addresses CDK2/Cyclin A2 (Homo sapiens) (UniProt P24941+P20248). Description: Inhibition of human CDK2/Cyclin A at 100 nM. It is filed as protein-complex assay.
In series [9] the target is Dual specificity protein kinase TTK (Homo sapiens) (UniProt P33981). Description: Inhibition of human TTK at 100 nM.
Chain of Dual specificity protein kinase TTK (Homo sapiens) (P33981 whole entry): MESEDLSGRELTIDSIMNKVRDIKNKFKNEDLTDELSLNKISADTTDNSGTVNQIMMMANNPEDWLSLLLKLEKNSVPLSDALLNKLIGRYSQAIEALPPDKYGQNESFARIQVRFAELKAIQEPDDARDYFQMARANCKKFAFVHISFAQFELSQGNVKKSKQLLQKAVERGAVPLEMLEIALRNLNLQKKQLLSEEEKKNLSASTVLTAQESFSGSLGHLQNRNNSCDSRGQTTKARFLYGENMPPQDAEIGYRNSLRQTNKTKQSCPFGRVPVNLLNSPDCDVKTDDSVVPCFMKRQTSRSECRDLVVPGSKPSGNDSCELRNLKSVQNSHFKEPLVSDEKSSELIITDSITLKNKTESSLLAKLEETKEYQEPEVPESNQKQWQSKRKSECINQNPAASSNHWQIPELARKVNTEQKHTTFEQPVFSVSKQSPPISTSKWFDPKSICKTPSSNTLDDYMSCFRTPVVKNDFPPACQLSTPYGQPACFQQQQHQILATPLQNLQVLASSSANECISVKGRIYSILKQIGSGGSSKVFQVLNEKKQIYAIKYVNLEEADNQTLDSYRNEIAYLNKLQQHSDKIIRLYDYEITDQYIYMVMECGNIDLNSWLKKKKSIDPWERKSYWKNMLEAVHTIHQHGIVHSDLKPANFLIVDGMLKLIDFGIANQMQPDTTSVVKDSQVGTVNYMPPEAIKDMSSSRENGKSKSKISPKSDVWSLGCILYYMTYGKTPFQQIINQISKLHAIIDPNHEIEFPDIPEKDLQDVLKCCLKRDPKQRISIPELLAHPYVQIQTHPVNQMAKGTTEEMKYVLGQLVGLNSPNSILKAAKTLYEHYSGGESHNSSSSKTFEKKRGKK
Series [10] concerns the target Mitogen-activated protein kinase 1 (Homo sapiens) (UniProt P28482). Put plainly: Inhibition of human ERK2 at 100 nM.
The target of series [11] is Ribosomal protein S6 kinase alpha-5 (Homo sapiens) (UniProt O75582). Put plainly: Inhibition of human MSK1 at 100 nM.
Chain of Ribosomal protein S6 kinase alpha-5 (Homo sapiens) (O75582 whole entry, looked up): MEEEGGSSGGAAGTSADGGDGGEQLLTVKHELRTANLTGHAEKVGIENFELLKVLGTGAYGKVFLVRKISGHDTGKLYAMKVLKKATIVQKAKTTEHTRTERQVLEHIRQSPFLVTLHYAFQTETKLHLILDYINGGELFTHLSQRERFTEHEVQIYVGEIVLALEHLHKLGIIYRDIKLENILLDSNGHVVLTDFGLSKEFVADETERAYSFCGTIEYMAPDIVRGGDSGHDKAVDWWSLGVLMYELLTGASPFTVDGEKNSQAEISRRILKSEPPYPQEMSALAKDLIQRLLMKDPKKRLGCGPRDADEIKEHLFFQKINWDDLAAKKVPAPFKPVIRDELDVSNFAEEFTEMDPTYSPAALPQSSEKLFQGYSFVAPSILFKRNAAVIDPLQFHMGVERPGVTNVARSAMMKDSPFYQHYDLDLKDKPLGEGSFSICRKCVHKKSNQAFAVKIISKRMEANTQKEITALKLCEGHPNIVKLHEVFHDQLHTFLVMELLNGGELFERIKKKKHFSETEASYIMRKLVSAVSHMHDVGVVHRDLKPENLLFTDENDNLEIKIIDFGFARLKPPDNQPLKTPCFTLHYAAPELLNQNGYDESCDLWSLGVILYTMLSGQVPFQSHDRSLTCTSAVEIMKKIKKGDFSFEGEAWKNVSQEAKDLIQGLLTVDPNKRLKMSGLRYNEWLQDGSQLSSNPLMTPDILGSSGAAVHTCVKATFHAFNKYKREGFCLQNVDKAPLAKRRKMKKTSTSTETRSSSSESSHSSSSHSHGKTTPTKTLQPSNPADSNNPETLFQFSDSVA
The target of series [12] is Receptor tyrosine-protein kinase erbB-4 (Homo sapiens) (UniProt Q15303). Description: Inhibition of human HER4 at 100 nM.
Chain of Receptor tyrosine-protein kinase erbB-4 (Homo sapiens) (Q15303 whole entry, canonical isoform): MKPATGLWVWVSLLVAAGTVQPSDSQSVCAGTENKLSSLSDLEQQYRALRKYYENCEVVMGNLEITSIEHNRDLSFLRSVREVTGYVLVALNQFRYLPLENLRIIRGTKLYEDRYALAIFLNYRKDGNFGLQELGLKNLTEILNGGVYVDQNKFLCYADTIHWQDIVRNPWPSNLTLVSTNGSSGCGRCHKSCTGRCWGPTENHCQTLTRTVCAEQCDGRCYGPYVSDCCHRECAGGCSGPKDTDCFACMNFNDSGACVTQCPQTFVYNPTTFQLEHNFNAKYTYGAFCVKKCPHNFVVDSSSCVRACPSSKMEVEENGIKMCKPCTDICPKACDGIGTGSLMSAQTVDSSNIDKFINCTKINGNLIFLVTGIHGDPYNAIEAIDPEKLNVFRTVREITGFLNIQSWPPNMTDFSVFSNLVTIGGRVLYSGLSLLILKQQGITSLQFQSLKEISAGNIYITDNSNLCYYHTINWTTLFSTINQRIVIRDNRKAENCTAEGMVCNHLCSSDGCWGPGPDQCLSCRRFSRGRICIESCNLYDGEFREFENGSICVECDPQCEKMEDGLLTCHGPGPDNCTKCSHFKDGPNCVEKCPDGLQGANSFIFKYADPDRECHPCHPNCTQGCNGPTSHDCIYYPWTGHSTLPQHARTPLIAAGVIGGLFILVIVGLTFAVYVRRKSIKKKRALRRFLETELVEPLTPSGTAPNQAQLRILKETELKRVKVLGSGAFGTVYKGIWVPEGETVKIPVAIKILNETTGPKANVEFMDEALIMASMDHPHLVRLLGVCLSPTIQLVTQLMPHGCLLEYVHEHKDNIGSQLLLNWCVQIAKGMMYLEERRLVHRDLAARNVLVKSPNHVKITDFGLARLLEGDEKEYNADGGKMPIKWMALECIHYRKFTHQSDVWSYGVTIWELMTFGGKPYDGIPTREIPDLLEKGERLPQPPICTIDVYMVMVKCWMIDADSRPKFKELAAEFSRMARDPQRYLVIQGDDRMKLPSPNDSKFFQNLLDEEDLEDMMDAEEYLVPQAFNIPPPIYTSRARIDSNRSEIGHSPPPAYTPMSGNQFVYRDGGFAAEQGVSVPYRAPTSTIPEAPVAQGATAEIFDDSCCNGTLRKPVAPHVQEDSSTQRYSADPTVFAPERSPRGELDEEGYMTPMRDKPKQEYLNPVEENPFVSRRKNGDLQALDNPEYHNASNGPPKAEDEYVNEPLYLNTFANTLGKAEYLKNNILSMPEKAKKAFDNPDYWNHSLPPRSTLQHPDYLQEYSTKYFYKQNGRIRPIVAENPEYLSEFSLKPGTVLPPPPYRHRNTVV
Series [13] deals with Casein kinase I isoform alpha (Homo sapiens) (UniProt P48729). Description: Inhibition of human CK1 at 100 nM.
Chain of Casein kinase I isoform alpha (Homo sapiens) (P48729 2-337 limits assumed): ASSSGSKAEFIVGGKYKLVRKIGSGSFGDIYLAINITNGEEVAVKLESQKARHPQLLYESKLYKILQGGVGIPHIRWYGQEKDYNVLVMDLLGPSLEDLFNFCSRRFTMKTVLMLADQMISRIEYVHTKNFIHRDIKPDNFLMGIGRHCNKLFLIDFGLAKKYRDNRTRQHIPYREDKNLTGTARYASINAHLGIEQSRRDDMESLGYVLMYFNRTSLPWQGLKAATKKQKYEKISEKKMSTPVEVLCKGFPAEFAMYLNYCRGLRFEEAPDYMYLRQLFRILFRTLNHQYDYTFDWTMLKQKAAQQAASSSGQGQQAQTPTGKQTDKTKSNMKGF
The species named for another series is Homo sapiens. The following applies: at 100 nM.
Series [14] has as its target Myosin light chain kinase, smooth muscle (Homo sapiens) (UniProt Q15746). Put plainly: Inhibition of human SmMLCK at 100 nM.
Series [15] has as its target Serine/threonine-protein kinase 3 (Homo sapiens) (UniProt Q13188). Description: Inhibition of human MST2 at 100 nM.
The target of series [16] is Ephrin type-A receptor 2 (Homo sapiens) (UniProt P29317). Put plainly: Inhibition of human EPHA2 at 100 nM.
Series [17] concerns the target Dual specificity mitogen-activated protein kinase kinase 1 (Homo sapiens) (UniProt Q02750). Description: Inhibition of human MKK1 at 100 nM.
Series [18] concerns the target Aurora kinase B (Homo sapiens) (UniProt Q96GD4). Description: Inhibition of human Aurora B at 100 nM.
Series [19] deals with Mitogen-activated protein kinase 9 (Homo sapiens) (UniProt P45984). Description: Inhibition of human JNK2 at 100 nM.
Chain of Mitogen-activated protein kinase 9 (Homo sapiens) (P45984 whole entry, looked up): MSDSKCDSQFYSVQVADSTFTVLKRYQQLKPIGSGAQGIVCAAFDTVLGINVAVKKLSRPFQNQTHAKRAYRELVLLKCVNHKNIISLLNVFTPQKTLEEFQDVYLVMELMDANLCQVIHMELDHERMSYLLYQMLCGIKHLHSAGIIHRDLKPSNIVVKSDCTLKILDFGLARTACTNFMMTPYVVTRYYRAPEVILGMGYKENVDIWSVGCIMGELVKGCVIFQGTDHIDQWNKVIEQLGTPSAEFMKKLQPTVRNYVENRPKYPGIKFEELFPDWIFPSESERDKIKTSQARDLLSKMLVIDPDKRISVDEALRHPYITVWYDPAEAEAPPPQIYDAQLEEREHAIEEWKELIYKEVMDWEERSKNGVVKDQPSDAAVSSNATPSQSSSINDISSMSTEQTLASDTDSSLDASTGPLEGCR
For series [20], the target named is Tyrosine-protein kinase JAK2 (Homo sapiens) (UniProt O60674). Put plainly: Inhibition of human JAK2 at 100 nM.
Series [21] deals with Serine/threonine-protein kinase STK11 (Homo sapiens) (UniProt Q15831). Put plainly: Inhibition of human LKB1 at 100 nM.
Chain of Serine/threonine-protein kinase STK11 (Homo sapiens) (Q15831 whole entry): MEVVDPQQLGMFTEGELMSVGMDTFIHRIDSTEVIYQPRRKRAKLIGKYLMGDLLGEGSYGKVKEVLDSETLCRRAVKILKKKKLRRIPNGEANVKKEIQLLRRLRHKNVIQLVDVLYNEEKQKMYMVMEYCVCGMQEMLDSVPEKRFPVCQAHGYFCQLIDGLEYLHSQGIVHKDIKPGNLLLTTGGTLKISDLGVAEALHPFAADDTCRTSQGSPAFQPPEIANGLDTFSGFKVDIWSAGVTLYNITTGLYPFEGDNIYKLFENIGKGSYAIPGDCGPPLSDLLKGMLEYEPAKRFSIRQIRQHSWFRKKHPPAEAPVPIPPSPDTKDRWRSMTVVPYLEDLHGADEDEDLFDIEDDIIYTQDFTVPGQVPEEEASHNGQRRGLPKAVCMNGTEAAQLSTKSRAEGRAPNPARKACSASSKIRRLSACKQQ
Series [22] addresses T2, Serine/threonine-protein kinase D1 (Homo sapiens) (UniProt Q15139).
T2 sequence (whole entry): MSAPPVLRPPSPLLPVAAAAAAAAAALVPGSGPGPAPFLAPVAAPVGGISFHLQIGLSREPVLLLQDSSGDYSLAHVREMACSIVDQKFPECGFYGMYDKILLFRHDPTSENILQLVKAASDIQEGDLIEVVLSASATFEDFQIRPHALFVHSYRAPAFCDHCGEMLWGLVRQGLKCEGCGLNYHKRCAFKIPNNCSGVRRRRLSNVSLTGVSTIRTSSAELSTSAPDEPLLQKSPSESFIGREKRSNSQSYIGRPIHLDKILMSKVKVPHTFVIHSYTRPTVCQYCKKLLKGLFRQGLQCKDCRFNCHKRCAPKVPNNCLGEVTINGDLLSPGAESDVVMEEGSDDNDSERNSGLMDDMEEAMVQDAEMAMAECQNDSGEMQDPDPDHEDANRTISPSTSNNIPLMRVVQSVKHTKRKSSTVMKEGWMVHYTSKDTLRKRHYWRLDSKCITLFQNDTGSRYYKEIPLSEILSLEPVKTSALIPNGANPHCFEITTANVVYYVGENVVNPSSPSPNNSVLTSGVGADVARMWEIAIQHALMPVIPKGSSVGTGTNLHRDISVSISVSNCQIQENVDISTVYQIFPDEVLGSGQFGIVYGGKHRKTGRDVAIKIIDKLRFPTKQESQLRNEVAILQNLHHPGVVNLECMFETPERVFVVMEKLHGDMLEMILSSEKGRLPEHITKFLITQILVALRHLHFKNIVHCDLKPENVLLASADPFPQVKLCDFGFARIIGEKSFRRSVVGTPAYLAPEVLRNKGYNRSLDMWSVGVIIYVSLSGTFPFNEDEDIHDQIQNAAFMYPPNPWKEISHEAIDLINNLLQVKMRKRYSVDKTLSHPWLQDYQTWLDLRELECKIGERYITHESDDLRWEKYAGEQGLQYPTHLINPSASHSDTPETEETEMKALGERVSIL
Put plainly: Inhibition of human PKD1 at 100 nM.

SMILES strings stand for the structures. Values after ≈ are worked out from the molar mass of the structure shown.

Chain of Mitogen-activated protein kinase 1 (Homo sapiens) (P28482 whole entry): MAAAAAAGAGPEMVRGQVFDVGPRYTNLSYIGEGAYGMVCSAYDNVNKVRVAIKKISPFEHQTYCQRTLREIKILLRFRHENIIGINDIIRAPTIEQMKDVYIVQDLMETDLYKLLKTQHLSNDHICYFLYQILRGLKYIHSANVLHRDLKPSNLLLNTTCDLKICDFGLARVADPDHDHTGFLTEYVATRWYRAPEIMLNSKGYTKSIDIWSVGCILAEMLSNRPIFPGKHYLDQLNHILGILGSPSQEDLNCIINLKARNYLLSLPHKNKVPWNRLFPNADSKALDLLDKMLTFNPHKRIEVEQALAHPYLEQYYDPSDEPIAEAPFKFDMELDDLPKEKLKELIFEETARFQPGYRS
Chain of Aurora kinase B (Homo sapiens) (Q96GD4 whole entry): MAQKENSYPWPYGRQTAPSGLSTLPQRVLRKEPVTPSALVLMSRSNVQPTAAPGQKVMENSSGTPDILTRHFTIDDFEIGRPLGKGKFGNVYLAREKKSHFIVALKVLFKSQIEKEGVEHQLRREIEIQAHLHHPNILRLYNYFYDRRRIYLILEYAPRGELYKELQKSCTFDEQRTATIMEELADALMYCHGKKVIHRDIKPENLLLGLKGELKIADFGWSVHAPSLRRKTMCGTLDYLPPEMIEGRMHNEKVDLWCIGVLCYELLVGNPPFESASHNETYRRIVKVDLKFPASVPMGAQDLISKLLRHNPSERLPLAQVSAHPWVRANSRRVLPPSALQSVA

As for `CN1CCC(c2nc(-c3cccc(S(C)(=O)=O)c3)c(-c3ccnc(Nc4ccc(N5CCNCC5)cc4)n3)s2)CC1`, the inhibition in series [1], in series [2], in series [3], in series [4], in series [5] and in [6] was less than 70% each time. In addition, the inhibition is less than 70% in [8]; less than 70% in series [9]; less than 70% in series [10]; less than 70% in [11]; more than 90% in series [12]; less than 70% in series [13]. Also, the inhibition (in the series filed under Homo sapiens; in [14]; in [15]; in series [16]; in series [17]; in series [18]) was less than 70% in each case. Besides, the inhibition in series [19], in [20], in series [21] and in [22] was less than 70% in each case. The compound further yielded an EC50 with Plasmodium falciparum of 105 nM. The solubility (kinetic) in series [7] is 208 µM (≈ 123 µg/mL).
Take `CN1CCC(c2nc(-c3ccc(F)c(NS(C)(=O)=O)c3)c(-c3ccnc(NCC4CC4)n3)s2)CC1`: the inhibition in [1], in series [2], in [3], in series [4], in [5] and in series [6] was less than 70% in each case. For the same compound, the inhibition in [8], in [9], in series [10], in series [11], in [12] and in [13] was less than 70% each time. Besides, the inhibition (in the series listed under Homo sapiens; in series [14]; in series [15]; in [16]; in [17]; in series [18]) was less than 70% throughout. Further, the inhibition in series [19], in series [20], in series [21] and in [22] was less than 70% throughout. The compound further yielded an EC50 in the series on Plasmodium falciparum of 113 nM. The same compound registered a kinetic solubility in series [7] of 190 µM (≈ 98.2 µg/mL).

The inhibition is the share of the control response that was lost under treatment. As a reminder, the EC50 is the concentration needed to bring the measured effect to its halfway point. The term kinetic solubility denotes the concentration staying in solution when a stock, usually in DMSO, is diluted into the medium.
